Consider five compounds from US9302985B2, “Benzyl sulfonamide derivatives as RORc modulators” (Genentech, Inc., priority 2012, dated 2016).

One may read the IC50 as the point on the concentration scale where inhibition reaches its midpoint. Low readings indicate greater potency, high ones weaker potency.

SMILES strings stand for the structures.

Sequence of RORc ligand binding domain (P51449 269-508, species assumed): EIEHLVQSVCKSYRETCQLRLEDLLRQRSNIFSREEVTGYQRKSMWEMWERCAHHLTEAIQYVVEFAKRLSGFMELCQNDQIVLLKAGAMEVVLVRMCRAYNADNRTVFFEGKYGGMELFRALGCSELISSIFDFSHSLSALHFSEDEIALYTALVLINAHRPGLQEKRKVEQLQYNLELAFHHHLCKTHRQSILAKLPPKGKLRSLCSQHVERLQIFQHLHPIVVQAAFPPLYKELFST

For the experiment, the target named is RORc ligand binding domain (Homo sapiens (Human), UniProt P51449). As to the kind of experiment: In vitro RORc Ligand Binding Assay. The note with it: displacement of 6 nM 25-[3H]hydroxycholesterol; 0.6 ug/mL RORc receptor; 3 h at 25° C. The method, then:
In vitro RORc Ligand Binding Assay
This assay was used to determine a compound's potency in inhibiting activity of RORc by determining, Kiapp, IC50, or percent inhibition values.
On day of the assay, 100 uL of 0.05% CHAPS (in deionized H2O) was added to all wells of the GFB Unifilter plate and allowed soak for 1 h. A wash buffer of 50 mM HEPES (pH 7.4), 150 mM NaCl, and 5 mM MgCl2 was prepared to wash the filter plate. To prepare an assay buffer, BSA was added to the wash buffer to reach 0.01% and DTT was added to reach 1 mM.
The 20× compound stocks were diluted in DMSO with Assay Buffer 4-fold to reach 5× the final test concentration in 25% DMSO (10 uL compound+30 uL Assay Buffer). Solutions were mixed by aspiration several times with a pipette set on 50 uL volume. For the assay, 10 uL of 5× compound stock solutions in 25% DMSO were added to the assay plate in duplicate.
For 25-hydroxycholesterol in 25% DMSO/75% Assay Buffer; 10 uL per well was used for NSB samples. Wells for Total Binding and No Receptor sample determination contained 10 uL of 25% DMSO/75% Assay Buffer per well.
Add 20 uL to all wells to reach 6 nM final concentration in the assay.
Stock receptor solution was diluted in assay buffer to obtain 1.5 ug/mL in Assay Buffer. 20 uL was added to all wells. For No Receptor samples, 20 uL Assay Buffer was substituted for receptor solution.
Assay plates were 96-well polypropylene V-bottom plates. 10 uL of 5× compound in 25% DMSO/75% Assay Buffer was added to Test wells. 10 uL of 25% DMSO/75% Assay Buffer was added to Total Binding or No Receptor wells. 10 uL of 5 uM 25-hydroxycholesterol in 25% DMSO/75% Assay Buffer was added to NSB wells. […] 20 uL of 1.5 ug/mL RORc receptor was added to wells (or 40 uL Assay Buffer to No R wells). Following addition to the wells, the plates were incubated 3 h at 25° C.
Using a Packard Filtermate Harvester, the filter plate were washed 4 times following transfer of the incubated samples. Plates were dry-filtered completely (2 h at 50° C. or overnight at room temperature). 50 uL Microscint 0 was added to all wells and read on Topcount protocol Inverted.
Final concentrations were as follows: 50 mM HEPES buffer (pH 7.4); 150 mM NaCl; 1 mM DTT; 5 mM MgCl2; 0.01% BSA; 5% DMSO; 0.6 ug/mL RORc receptor; 6 nM 25-[^3H]hydroxycholesterol. For NSB wells, 1 uM 25-hydroxycholesterol was also present.
As for `CC(C)CN(c1cccc(Cl)c1)S(=O)(=O)c1ccc(-c2ccc(C(N)=O)cc2)cc1` [Compound 15, 4′-[(3-Chloro-phenyl)-isobutyl-sulfamoyl]-biphenyl-4-carboxylic acid amide], the half-maximal inhibitory concentration (IC50) worked out at 38 nM.

In turn, `CC(C)CN(Cc1ccccc1)S(=O)(=O)c1ccc(-c2ccc(C(N)=O)cc2)cc1` [Compound 7, 4′-(Benzyl-isobutyl-sulfamoyl)-biphenyl-4-carboxylic acid amide] showed an IC50 of 124 nM.

Take `CC(C)CN(c1cccc(Cl)c1)S(=O)(=O)c1ccc(Oc2ccc(S(C)(=O)=O)cc2)cc1` [Compound 5, N-(3-Chloro-phenyl)-N-isobutyl-4-(4-mehanesulfonyl-phenoxy)-benzenesulfonamide]: the IC50 amounted to 138 nM.

In turn, `CC(C)CN(c1cccc(Cl)c1)S(=O)(=O)c1ccc(-c2ccc(S(N)(=O)=O)cc2)cc1` [Compound 14, Biphenyl-4,4′-disulfonic acid 4′-amide 4-[(3-chloro-phenyl)-isobutyl-amide]] gave an IC50 of 103 nM.

`CC(C)CN(c1ccccc1Cl)S(=O)(=O)c1ccc(-c2ccc(C(N)=O)cc2)cc1` [Compound 16, 4′-[(2-Chloro-phenyl)-isobutyl-sulfamoyl]-biphenyl-4-carboxylic acid amide] came in with an IC50 of 39 nM.
